SMILES strings stand for the structures.

What all share (format): cell-based
One test addresses T1, Y1R (Homo sapiens, UniProt P25929).
T1 sequence (P25929 1-384): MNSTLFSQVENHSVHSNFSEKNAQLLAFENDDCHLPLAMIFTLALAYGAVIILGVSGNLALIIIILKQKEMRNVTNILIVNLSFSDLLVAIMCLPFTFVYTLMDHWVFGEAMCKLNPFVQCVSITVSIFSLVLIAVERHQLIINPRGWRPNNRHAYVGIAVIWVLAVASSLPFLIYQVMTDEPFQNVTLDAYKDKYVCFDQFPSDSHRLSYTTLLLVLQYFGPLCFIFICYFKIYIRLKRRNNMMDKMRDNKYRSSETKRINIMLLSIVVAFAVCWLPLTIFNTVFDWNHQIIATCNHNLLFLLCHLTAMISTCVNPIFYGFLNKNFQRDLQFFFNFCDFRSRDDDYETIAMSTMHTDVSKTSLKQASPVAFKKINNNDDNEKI
Put plainly: CaFlux Assay (FLIPR), Y1R.

For the next test, the target named is Y4R (Homo sapiens, UniProt P50391). Nature of the test: CaFlux Assay (FLIPR), Y4R.
Y4R, sequence (P50391 whole entry): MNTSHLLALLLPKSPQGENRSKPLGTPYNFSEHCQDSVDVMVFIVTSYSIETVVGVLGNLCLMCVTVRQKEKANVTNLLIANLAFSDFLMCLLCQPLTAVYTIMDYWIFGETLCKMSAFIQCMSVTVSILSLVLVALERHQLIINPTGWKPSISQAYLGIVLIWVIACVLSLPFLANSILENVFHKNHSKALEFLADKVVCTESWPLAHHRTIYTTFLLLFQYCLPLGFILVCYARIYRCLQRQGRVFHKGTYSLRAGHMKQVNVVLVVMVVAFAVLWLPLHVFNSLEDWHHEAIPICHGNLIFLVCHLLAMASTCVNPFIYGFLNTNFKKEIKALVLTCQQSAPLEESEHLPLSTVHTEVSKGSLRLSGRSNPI
The target in another test is T2, Y5R (Homo sapiens, UniProt Q15761).
T2 sequence (Q15761 1-445): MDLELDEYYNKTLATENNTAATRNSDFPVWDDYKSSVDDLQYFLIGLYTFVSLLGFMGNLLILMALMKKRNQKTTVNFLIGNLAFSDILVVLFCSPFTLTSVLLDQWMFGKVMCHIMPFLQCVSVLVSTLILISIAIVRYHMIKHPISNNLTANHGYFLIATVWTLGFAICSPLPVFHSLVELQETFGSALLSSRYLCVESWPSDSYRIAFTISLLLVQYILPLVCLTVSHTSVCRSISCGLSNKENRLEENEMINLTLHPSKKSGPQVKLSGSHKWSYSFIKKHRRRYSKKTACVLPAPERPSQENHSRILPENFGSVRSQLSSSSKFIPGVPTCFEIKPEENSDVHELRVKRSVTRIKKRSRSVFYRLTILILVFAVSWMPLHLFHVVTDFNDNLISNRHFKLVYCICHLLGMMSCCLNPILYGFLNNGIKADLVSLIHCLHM
Nature of the test: CaFlux Assay (FLIPR), Y5R.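 For Emax: percent of the maximal response of the positive control agonist.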 Conditions: for Emax: read-out: Y5R FLIPR, percentage in parentheses under the EC50.

The target in test [1] is T3, hNPY2R (Homo sapiens, UniProt P49146).
T3 sequence (P49146 1-381): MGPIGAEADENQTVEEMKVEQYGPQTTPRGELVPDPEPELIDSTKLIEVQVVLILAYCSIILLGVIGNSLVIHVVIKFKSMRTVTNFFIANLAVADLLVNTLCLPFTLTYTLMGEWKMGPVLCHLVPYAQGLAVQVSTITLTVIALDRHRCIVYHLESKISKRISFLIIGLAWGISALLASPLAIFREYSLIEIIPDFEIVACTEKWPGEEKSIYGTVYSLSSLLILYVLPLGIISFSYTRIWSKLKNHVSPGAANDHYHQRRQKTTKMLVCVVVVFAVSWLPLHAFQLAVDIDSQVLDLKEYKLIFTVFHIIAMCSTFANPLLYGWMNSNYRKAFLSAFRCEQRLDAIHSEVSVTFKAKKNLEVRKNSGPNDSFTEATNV
Nature of the test: cAMP Agonist Assay, HEK293/hNPY2R cells. Set-up: expressed in transfected cells; host or cells: HEK293/hNPY2R (G418 selection).

Test [2] has as its target T3, hNPY2R. Nature of the test: CaFlux Assay (FLIPR), Y2R. Set-up: expressed in transfected cells; host or cells: HEK-293 stably expressing G protein chimera Gaqi9.
Protocol: Hek-293 cells were stably transfected with the G protein chimera Gaqi9 and the hygromycin-B resistance gene were further transfected with the human NPY2 receptor and G418 antibiotic selection. Following selection in both hygromycin-B and G418, individual clones were assayed for their response to PYY. The transfected cells were cultured in DMEM medium supplemented with 10% fetal bovine serum, 50 μg/mL hygromycin-B 2 mM glutamine, 100 U/mL penicillin, 100 μg/mL streptomycin and 250 μg/mL G418. Cells are harvested with trypsin-EDTA and counted using ViaCount reagent. The cell suspension volume is adjusted to 4.8×10^5 cells/mL with complete growth media. Aliquots of 25 μL are dispensed into 384 well Poly-D Lysine coated black/clear microplates (Falcon) and the microplates were placed in a 37° C. CO2 incubator overnight. Loading Buffer (Calcium-3 Assay Kit, Molecular Devices) was prepared by dissolving the contents of one vial (Express Kit) into 1000 mL Hank's Balanced Salt Solution containing 20 mM HEPES and 5 mM probenecid. Aliquots of 25 μL of diluted dye were dispensed into the cell plates and the plates are then incubated for 1 hour at 37° C. During the incubation, test compounds were prepared at 3.5× the desired concentration in HBSS (20 mM HEPES)/0.05% BSA/1% DMSO and transferred to a 384 well plate for use on FLIPR. After incubation, both the cell and compound plates were brought to the FLIPR and 20 μL of the diluted compounds were transferred to the cell plates by the FLIPR. During the assay, fluorescence readings were taken simultaneously from all 384 wells of the cell plate every 1.5 seconds. Five readings were taken to establish a stable baseline, and then 20 μL of sample was rapidly (30 μL/sec) and simultaneously added to each well of the cell plate. The fluorescence was continuously monitored before, during and after sample addition for a total elapsed time of 100 seconds. Responses (increase in peak fluorescence) in each well following addition were determined. The initial fluorescence reading from each well, prior to ligand stimulation, was used as a zero baseline value for the data from that well. The responses are expressed as % of maximal response of the positive control.

For orientation: EC50 means the concentration needed to bring the measured effect to its halfway point. Low readings indicate an effect from little substance, high ones a need for much substance. In the case of `CCCCCCCCCCCC(=O)N[C@@H](CCC(=O)O)C(=O)NCCCC[C@H](NC(=O)[C@@H](N)[C@@H](C)CC)C(=O)N1CCN(c2ccc3ncn(CC(=O)N[C@@H](CCCNC(=N)N)C(=O)N[C@@H](Cc4c[nH]cn4)C(=O)N[C@@H](Cc4ccc(O)cc4)C(=O)N[C@@H](CC(C)C)C(=O)N[C@@H](CC(N)=O)C(=O)N[C@@H](Cc4c[nH]c5ccccc45)C(=O)N[C@H](C(=O)N[C@H](C(=O)N[C@@H](CCCNC(=N)N)C(=O)N[C@@H](CCC(N)=O)C(=O)N(C)[C@@H](CCCNC(=N)N)C(=O)N[C@@H](Cc4ccc(O)cc4)C(N)=O)[C@@H](C)O)C(C)C)c(=O)c3c2)CC1` [Example 11], the EC50 at Y1R is above 5000 nM; on Y4R, 2430 nM; at Y5R it was 3550 nM; on hNPY2R [1], 3.6 nM; at hNPY2R [2], 0.026 nM.

For the molecule `CCCCCCCCCCCCCCCC(=O)N[C@H](C(=O)N[C@H](C(=O)NCCCC[C@H](NC(=O)[C@@H](N)[C@@H](C)CC)C(=O)N1CCN(c2ccc3ncn(CC(=O)N[C@@H](CCCNC(=N)N)C(=O)N[C@@H](Cc4c[nH]cn4)C(=O)N[C@@H](Cc4ccc(O)cc4)C(=O)N[C@@H](CC(C)C)C(=O)N[C@@H](CC(N)=O)C(=O)N[C@@H](Cc4c[nH]c5ccccc45)C(=O)N[C@H](C(=O)N[C@H](C(=O)N[C@@H](CCCNC(=N)N)C(=O)N[C@@H](CCC(N)=O)C(=O)N(C)[C@@H](CCCNC(=N)N)C(=O)N[C@@H](Cc4ccc(O)cc4)C(N)=O)[C@@H](C)O)C(C)C)c(=O)c3c2)CC1)[C@@H](C)O)[C@@H](C)O` [Example 42], the EC50 was above 5000 nM on Y1R; above 5000 nM on Y4R; 193 nM on Y5R; 0.14 nM on hNPY2R [1]; 0.018 nM on hNPY2R [2]. Further, the Emax at Y5R stood at 46%.

For the molecule `CCCCCCCCCCCCCCCCCCCC(=O)N[C@@H](CCC(=O)N[C@@H](CCC(=O)NCCCC[C@H](NC(=O)[C@@H](N)[C@@H](C)CC)C(=O)N1CCN(c2ccc3ncn(CC(=O)N[C@@H](CCCNC(=N)N)C(=O)N[C@@H](Cc4c[nH]cn4)C(=O)N[C@@H](Cc4ccc(O)cc4)C(=O)N[C@@H](CC(C)C)C(=O)N[C@@H](CC(N)=O)C(=O)N[C@@H](Cc4c[nH]c5ccccc45)C(=O)N[C@H](C(=O)N[C@H](C(=O)N[C@@H](CCCNC(=N)N)C(=O)N[C@@H](CCC(N)=O)C(=O)N(C)[C@@H](CCCNC(=N)N)C(=O)N[C@@H](Cc4ccc(O)cc4)C(N)=O)[C@@H](C)O)C(C)C)c(=O)c3c2)CC1)C(=O)O)C(=O)O` [Example 31], the EC50 was above 5000 nM on Y1R; above 5000 nM at Y4R; 634 nM at Y5R; 0.07 nM at hNPY2R [1]; 0.091 nM at hNPY2R [2]. For the same molecule, on Y5R, the Emax amounted to 60%.

As to `CCCCCCCCCCCCCCCC(=O)NCCOCCNC(=O)CCC(=O)NCCCC[C@H](NC(=O)[C@@H](N)[C@@H](C)CC)C(=O)N1CCN(c2ccc3ncn(CC(=O)N[C@@H](CCCNC(=N)N)C(=O)N[C@@H](Cc4c[nH]cn4)C(=O)N[C@@H](Cc4ccc(O)cc4)C(=O)N[C@@H](CC(C)C)C(=O)N[C@@H](CC(N)=O)C(=O)N[C@@H](Cc4c[nH]c5ccccc45)C(=O)N[C@H](C(=O)N[C@H](C(=O)N[C@@H](CCCNC(=N)N)C(=O)N[C@@H](CCC(N)=O)C(=O)N(C)[C@@H](CCCNC(=N)N)C(=O)N[C@@H](Cc4ccc(O)cc4)C(N)=O)[C@@H](C)O)C(C)C)c(=O)c3c2)CC1` [Example 38], the 50% effective concentration (EC50) at Y1R was above 5000 nM; on Y4R it was above 5000 nM; on Y5R, 644 nM; at hNPY2R [1], 0.17 nM; on hNPY2R [2], 0.003 nM. Besides, the Emax at Y5R turned out to be 83%.

Turning to `CCCCCCCCCCCCCCCC(=O)NCCCC[C@H](NC(=O)[C@@H](N)[C@@H](C)CC)C(=O)N1CCN(c2ccc3ncn(CC(=O)N[C@@H](CCCNC(=N)N)C(=O)N[C@@H](Cc4c[nH]cn4)C(=O)N[C@@H](Cc4ccc(O)cc4)C(=O)N[C@@H](CC(C)C)C(=O)N[C@@H](CC(N)=O)C(=O)N[C@@H](Cc4c[nH]c5ccccc45)C(=O)N[C@H](C(=O)N[C@H](C(=O)N[C@@H](CCCNC(=N)N)C(=O)N[C@@H](CCC(N)=O)C(=O)N(C)[C@@H](CCCNC(=N)N)C(=O)N[C@@H](Cc4ccc(O)cc4)C(N)=O)[C@@H](C)O)C(C)C)c(=O)c3c2)CC1` [Example 14], the EC50 at Y1R was above 5000 nM; on Y4R, above 5000 nM; on Y5R, 12700 nM; at hNPY2R [1], 1 nM; at hNPY2R [2], 0.73 nM.

As to `CCCCCCCCCCCCCCCC(=O)NCCOCCOCCOCCOCCC(=O)NCCCC[C@H](NC(=O)[C@@H](N)[C@@H](C)CC)C(=O)N1CCN(c2ccc3ncn(CC(=O)N[C@@H](CCCNC(=N)N)C(=O)N[C@@H](Cc4c[nH]cn4)C(=O)N[C@@H](Cc4ccc(O)cc4)C(=O)N[C@@H](CC(C)C)C(=O)N[C@@H](CC(N)=O)C(=O)N[C@@H](Cc4c[nH]c5ccccc45)C(=O)N[C@H](C(=O)N[C@H](C(=O)N[C@@H](CCCNC(=N)N)C(=O)N[C@@H](CCC(N)=O)C(=O)N(C)[C@@H](CCCNC(=N)N)C(=O)N[C@@H](Cc4ccc(O)cc4)C(N)=O)[C@@H](C)O)C(C)C)c(=O)c3c2)CC1` [Example 32], the EC50 was above 5000 nM at Y1R; above 5000 nM at Y4R; 973 nM at Y5R; 0.19 nM at hNPY2R [1]; 0.26 nM at hNPY2R [2]. The Emax on Y5R was 28%.

For the molecule `CCCCCCCCCCCCCCCC(=O)NCCCCCC(=O)NCCCC[C@H](NC(=O)[C@@H](N)[C@@H](C)CC)C(=O)N1CCN(c2ccc3ncn(CC(=O)N[C@@H](CCCNC(=N)N)C(=O)N[C@@H](Cc4c[nH]cn4)C(=O)N[C@@H](Cc4ccc(O)cc4)C(=O)N[C@@H](CC(C)C)C(=O)N[C@@H](CC(N)=O)C(=O)N[C@@H](Cc4c[nH]c5ccccc45)C(=O)N[C@H](C(=O)N[C@H](C(=O)N[C@@H](CCCNC(=N)N)C(=O)N[C@@H](CCC(N)=O)C(=O)N[C@@H](CCCNC(=N)N)C(=O)N[C@@H](Cc4ccc(O)cc4)C(N)=O)[C@@H](C)O)C(C)C)c(=O)c3c2)CC1` [Example 19], the EC50 on Y1R was above 5000 nM; on Y4R, above 5000 nM; at Y5R, 45 nM; at hNPY2R [1] it was 0.15 nM; at hNPY2R [2], 0.004 nM.

On to `CC[C@H](C)[C@H](N)C(=O)N[C@@H](CCCCNC(=O)CC[C@H](NC(=O)CC[C@H](NC(=O)CCCCCCCCCCCCCCCBr)C(=O)O)C(=O)O)C(=O)N1CCN(c2ccc3ncn(CC(=O)N[C@@H](CCCNC(=N)N)C(=O)N[C@@H](Cc4c[nH]cn4)C(=O)N[C@@H](Cc4ccc(O)cc4)C(=O)N[C@@H](CC(C)C)C(=O)N[C@@H](CC(N)=O)C(=O)N[C@@H](Cc4c[nH]c5ccccc45)C(=O)N[C@H](C(=O)N[C@H](C(=O)N[C@@H](CCCNC(=N)N)C(=O)N[C@@H](CCC(N)=O)C(=O)N(C)[C@@H](CCCNC(=N)N)C(=O)N[C@@H](Cc4ccc(O)cc4)C(N)=O)[C@@H](C)O)C(C)C)c(=O)c3c2)CC1` [Example 27], for which the EC50 on Y1R was above 5000 nM; on Y4R, above 5000 nM; at Y5R it was 2540 nM; at hNPY2R [1], 0.4 nM; at hNPY2R [2], 0.23 nM.

As to `CCCCCCCCCCCCCCCC(=O)N[C@@H](CCC(=O)O)C(=O)NCCCC[C@H](NC(=O)[C@@H](N)[C@@H](C)CC)C(=O)N1CCN(c2ccc3ncn(CC(=O)N[C@@H](CCCNC(=N)N)C(=O)N[C@@H](Cc4c[nH]cn4)C(=O)N[C@@H](Cc4ccc(O)cc4)C(=O)N[C@@H](CC(C)C)C(=O)N[C@@H](CC(N)=O)C(=O)N[C@@H](Cc4c[nH]c5ccccc45)C(=O)N[C@H](C(=O)N[C@H](C(=O)N[C@@H](CCCNC(=N)N)C(=O)N[C@@H](CCC(N)=O)C(=O)N(C)[C@@H](CCCNC(=N)N)C(=O)N[C@@H](Cc4ccc(O)cc4)C(N)=O)[C@@H](C)O)C(C)C)c(=O)c3c2)CC1` [Example 21], the EC50 is above 5000 nM at Y1R; above 5000 nM at Y4R; 4180 nM on Y5R; 1 nM at hNPY2R [1]; 0.43 nM at hNPY2R [2].

For the origin of these results see patent US20100179093A1, “Neoropeptide-2-Receptor (Y-2R) Agonists” (priority 2008, published 2010).
